Reference: patent US20250382556A1, “MODULATION OF THE BRANCHED-CHAIN METABOLITE CONTENT OF FRUITS AND VEGETABLES” (BOARD OF TRUSTEES OF MICHIGAN STATE UNIVERSITY, priority 2024, published 2025)

Tests used:
[1] = system: ‘Red Delicious’ apple fruit; experiment: Physiology of MCP-treated stored apple fruit (respiration, firmness); format: in vivo, Malus x domestica Borkh.; conditions: Red Delicious after five months storage in air at 0° C. and warming
Protocol: ‘Gala’, ‘Empire’, ‘Jonagold’, and ‘Red Delicious’ apple fruit (Malus x domestica Borkh.) were harvested from local orchards at commercial maturity and transported to the laboratory during the 2022 and 2023 seasons. As determined by previously described methods, the fruit were at the developmental onset of ripening with no subjectively discernible aroma. ‘Gala’ and ‘Empire’ fruits began treatment immediately after arrival in the laboratory. ‘Jonagold’ fruit were held in air at 0° C. for two days before transfer to controlled atmosphere (CA) storage (1.5 O2, 3% CO2, 0° C.) and then kept in CA for twelve days to suppress ethylene action before the initiation of inhibitor treatment. ‘Red Delicious’ fruit were treated with 50 nL·^−1 1-methylcyclopropene (MCP) for 24 h at 0° C. The MCP was evolved from a commercial MCP product (EASYFRESH®, Fine Americas) in sealed chambers two days after harvest as previously described. The fruit were then stored in air at 0° C. for five months and were warmed to 22° C. for 24 h before sulfonylurea treatment. This low-dosage MCP treatment had very mild effects on physiology. […] Based on the internal ethylene concentration (˜100 μL·L^−1) and the total ester production (elevated and trending upwards), the fruit were considered to be of an advanced stage of ripeness, but not senescent. […]

banana pulp [2] = experiment: Free amino acid content of banana pulp via UPLC-MS/MS after AHAS inhibitor treatment; design: species or system Musa spp. AAA group, Cavendish subgroup, cv. Valery; key to free asparagine content compared to control / free glutamine content compared to control / free histidine content compared to control / free isoleucine content compared to control / free lysine content compared to control / free methionine content compared to control / free phenylalanine content compared to control / free threonine content compared to control / free tryptophan content compared to control / free arginine content compared to control: —: Dash indicates no significant difference between treatments
Protocol: (§1) In the first method, mature green ‘Valery’ fruit were cut into ˜1 cm^2 sections, 2-mm thick, from transverse sections of fruit not treated with ethylene. Care was taken such that one edge of the square was from the edge of the pulp, thus representing an undisturbed or ‘live edge’ of cells that should be able to maintain unhindered gas exchange. Pulp sections were prepared in vials as above described for apples. Treatment solution: 0.5 mM halosulfuron-methyl (methyl 3-chloro-5-(4,6-dimethoxypyrimidin-2-ylcarbamoylsulfamoyl)-1-methylpyrazole-4-carboxylate, made from SANDEA®, Gowan Co. 75% w/w active ingredient; 0.1% Tween 20). Ripening was induced by injection of 1 μL ethylene into the vial's 20-mL headspace. The following day the vials were vented for 15 min before having the Mininert valve (Valco Instruments Co. Inc.) replaced on the vial but with a needle inserted to allow for gas diffusion. Daily for the following two days, 20 μL of freshly made inhibitor or water solution was added onto the pulp. The needles were again kept in the valves to maintain gas diffusion. The next day, and thus four days since initially preparing the vials, the needles were removed, and the vials were sealed and incubated for at least 1 hour at room temperature (22° C.) before headspace sampling.
After volatile analysis, apple peel disks, collected peel of flowering quince, and ‘Valery’ pulp section samples were held at −80° C. for further amino acid analysis.
Frozen samples were ground to a powder in liquid nitrogen-chilled mortar and pestles. About 500 mg of tissue was vortexed for 10 sec in 2 mL of room temperature (22° C.) extraction solution (1:1:1 water:acetonitrile:ethanol, v/v/v) spiked with 2 nmoles of U-^13C,^15N labeled amino acids (MilliporeSigma) as internal standards and heated for 15 min in a 65° C. water bath. Extracts were briefly chilled on ice before centrifugation at 4400×g for 15 min at 4° C. The supernatant was filtered by centrifugation (0.2 μm nylon centrifugal filter; Costar, Corning) at 21000×g for 5 min at room temperature. 10 μL of the filtrate was transferred to an autosampler vial and diluted 100-fold with 990 μL of 10.1 mM perfluorohexanoic acid (PFHA) spiked with […] of internal standard. Thus the final concentration of internal standard was ˜2 μM.
An amino acid standard series was prepared from a premade mixture (MilliporeSigma, AAS18) that contained equal molar amounts of cystine and all 20 proteinogenic amino acids save for tryptophan, asparagine, glutamine, and cysteine. An equal molar mixture of tryptophan, asparagine, glutamine, and cysteine was subsequently prepared. To avoid dilution errors or artefacts from differing buffers, these amino acid stocks were aliquoted and desiccated such that a five-part standard series ranging from 250 μM to 25 nM would be produced upon resuscitation with 10 μL of spiked extraction buffer and 990 μL spiked PFHA solution.
Samples and amino acids were held overnight at −20° C. before analysis. Amino acids were analyzed with a Xevo TQ-S Micro UPLC (H-Class)-MS/MS (Waters) at the Michigan State University Mass Spectrometry and Metabolomics Core. Conditions were as follows. HPLC column: Acquirt UPLC HSS T3, 2.1×100 mm, 1.7 μm particle size (Waters), with a 0.2 μm pre-column filter (Waters). Mobile phase: A) 10 mM PFHA in water, B) acetonitrile. LC gradient: linear gradient, slope setting=6, flow rate=0.3 mL·min^−1, step 1) 0 min, 100% A, 0% B, 2) 1 min, 100% A, 0% B, 3) 8 min, 35% A, 65% B, 4) 8.01 min, 10% A, 90% B, 5) 9 min, 10% A, 90% B, 6) 9.01 min, 100% A, 0% B, 7) 13 min, 100% A, 0% B. Column temp: 40° C. Autosampler temp: 10° C. Injection volume: 10 μL. Tune parameters: electrospray ionization, standard ESI probe, capillary voltage=+1.0 kV, source temp=120° C., desolvation temp=350° C., desolvation gas=800 L·hr^−1, cone gas=40 L·hr^−1. […]

banana pulp [3] = experiment: Headspace volatile ester emissions of banana pulp sections treated with AHAS inhibitor; design: species or system Musa spp. AAA group, Cavendish subgroup, cv. Valery; key to 1-methylbutyl acetate emissions compared to control: —: Dash indicates no significant difference between treatments
Excerpt: Banana fruit at an early stage of ripening were infiltrated with AHAS inhibitors by two means. The first method was used for the effects of sulfonylureas on volatile and amino acid content, whereas the second was used to investigate the recovery of sulfonylurea-treated fruits after precursor application.
as §1
Headspace volatiles from small tissue samples incubated in 22 mL vials were adsorbed for 30 s using a solid-phase micro extraction (SPME) fiber (65 μm PDMS-DVB; Supelco Analytical). The SPME fiber was then directly desorbed for 1 min in the injection port of a gas chromatograph (GC; HP-6890, Hewlett-Packard) coupled to a time-of-flight mass spectrometer (MS; Pegasus II, LECO). Whole fruits and banana slices were incubated for 20 min at room temperature (22° C.) in 1-L sealed Teflon jars before a 15-s, or 3-min adsorption and 1- or 2-min desorption. Adsorption times were adjusted to ensure instrument responses were in the linear range. All desorbed volatiles were cryofocused at the beginning of the column by immersing said region of the column in liquid nitrogen. After the desorption period, the run was initiated and the liquid nitrogen removed.
The conditions of the system were as follows. Injection port: 200° C., splitless, ultra-purified helium (99.999%) carrier gas, front inlet flow 1.5 mL·min^−1 constant, 10 mL·min^−1 purge flow, 11.5 mL·min^−1 total flow. Oven: initial temperature 40° C. for 0 min, ramped by 43° C.·min^−1 to 185° C. for 0 min. Column: HP-5 MS, 30 m×0.25 mm i.d., 0.25 μm film thickness (Agilent). Transfer line temperature 225° C. MS: Electron ionization (−70 eV), ion source temperature 200° C., solvent delay 50 sec, m/z range 29 to 400, detector voltage 1500 V, data collection rate 20 Hz.
Compounds were identified by comparison of the retention time and mass spectrum against authenticated reference standards and spectra (National Institute of Standards and Technology Mass Spectral Search Program Version 2.0, 2001). Volatiles were quantified by calibration with a standard of 59 authenticated, high-purity compounds (Sigma-Aldrich Co. and Fluka Chemical) including the target compounds. The standard was made by placing 0.5 μL of an equal-part mixture of the neat compounds onto a disc of filter paper before quickly placing the filter paper into a 4-L sealed flask fitted with a Mininert valve (for SPME fiber access, and allowed to vaporize for at least 6 hours. SPME adsorption and desorption times of the standard matched that of the samples quantified (e.g., 30-s adsorption, 1 min desorption when quantifying samples in 22-mL vials).
Statistical analysis was performed using SciPy (v1.6.2), RStudio (v2023.03.0+386), or Microsoft Excel (v16.89). […]

[4] = Valery banana pulp sections, 0.5 mM

With `CC1=CC1` [MCP, 1-methylcyclopropene] the “respiration rate of MCP-treated fruit relative to untreated fruit” value [1] was 88.7%.

For `COC(=O)c1c(Cl)nn(C)c1S(=O)(=O)NC(=O)Nc1nc(OC)cc(OC)n1` [halosulfuron-methyl, methyl 3-chloro-5-(4,6-dimethoxypyrimidin-2-ylcarbamoylsulfamoyl)-1-methylpyrazole-4-carboxylate], the isoleucine levels (banana pulp [2]; Valery banana fruit) was “unchanged”, the “total content of free amino acids” value (banana pulp [2]; Valery banana fruit) was “increased” and the “valine and leucine less abundant” value (banana pulp [2]; Valery banana fruit) was 57.6%. For the same molecule, the “free alanine content compared to control” value (banana pulp [2]; [4]) was 407.4 ± 66.8%, the “free arginine content compared to control” value (banana pulp [2]; [4]) was “—” and the “free asparagine content compared to control” value (banana pulp [2]; [4]) was “—”. For the same molecule, the “free aspartate content compared to control” value (banana pulp [2]; [4]) was 332.7 ± 30.1%, the “free cysteine content compared to control” value (banana pulp [2]; [4]) was 264.2 ± 46.6% and the “free glutamate content compared to control” value (banana pulp [2]; [4]) was 217.4 ± 23.9%. For the same molecule, the “free glutamine content compared to control” value (banana pulp [2]; [4]) was “—”, the “free glycine content compared to control” value (banana pulp [2]; [4]) was 173.1 ± 39.9% and the “free histidine content compared to control” value (banana pulp [2]; [4]) was “—”. For the same molecule, the “free isoleucine content compared to control” value (banana pulp [2]; [4]) was “—”, the “free leucine content compared to control” value (banana pulp [2]; [4]) was 65.8 ± 6.1% and the “free lysine content compared to control” value (banana pulp [2]; [4]) was “—”. The “free methionine content compared to control” value (banana pulp [2]; [4]) was “—”, the “free phenylalanine content compared to control” value (banana pulp [2]; [4]) was “—” and the “free proline content compared to control” value (banana pulp [2]; [4]) was 188.4 ± 18.7%. For the same molecule, the “free serine content compared to control” value (banana pulp [2]; [4]) was 186.2 ± 14.5%, the “free threonine content compared to control” value (banana pulp [2]; [4]) was “—” and the “free tryptophan content compared to control” value (banana pulp [2]; [4]) was “—”. For the same molecule, the “free tyrosine content compared to control” value (banana pulp [2]; [4]) was 142.3 ± 25.1%, the “free valine content compared to control” value (banana pulp [2]; [4]) was 14.3 ± 0.8% and the “total free amino acid content compared to control” value (banana pulp [2]; [4]) was 150.6 ± 13.7%. The “ethyl acetate, butyl acetate, and butyl butanoate collectively reduced” value (banana pulp [3]; Valery banana fruit) was 95.0%, the “reduction in the total content of iso-branched-chain esters in the headspace” value (banana pulp [3]; Valery banana fruit) was 90.3% and the “sec-branched esters or related volatiles (2-pentanone, 2-pentanol, 1-methylbutyl acetate, 1-methylbutyl butanoate) affected by inhibitor treatment” value (banana pulp [3]; Valery banana fruit) was “None”. The “1-methylbutyl acetate emissions compared to control” value (banana pulp [3]; [4]) was “—”, the “2-methylpropyl acetate (val) emissions compared to control” value (banana pulp [3]; [4]) was 2.0 ± 0.7% and the “3-methylbutyl acetate (leu) emissions compared to control” value (banana pulp [3]; [4]) was 10.4 ± 5.4%. The “butyl acetate emissions compared to control” value (banana pulp [3]; [4]) was 3.9 ± 2.7%, the “ethyl acetate emissions compared to control” value (banana pulp [3]; [4]) was 3.9 ± 2.4% and the “sum of anteiso- and iso-branched-chain esters emissions compared to control” value (banana pulp [3]; [4]) was 9.7 ± 3.6%.
